Format in all cases: binding
Assay [1] concerns the target T1, PCSK9 (Homo sapiens, UniProt Q8NBP7).
T1 construct: biotin (biotinylated)
Put plainly: PCSK9 Alexa FRET Plus assay (displacement of AlexaFluor647-tagged cyclic peptide Reagent B). The note with it: 0.5 nM PCSK9, 960 nM AF cyclic peptide Reagent B. The protocol: A solution containing 1 nM biotinylated PCSK9+2.5 nM Lance Streptavidin Europium (Strep-Eu) was made in 50 mM HEPES pH 7.4, 0.15 M NaCl, 5 mM CaCl2, 0.01% BSA, and 0.01% Surfactant P20. A separate solution containing 1920 nM of the AlexaFluor tagged cyclic peptide was made in the same buffer system. An Echo was used to transfer 0.075 ul of compound plus 0.675 ul of DMSO to each well of an assay plate followed by the addition of 15 ul of PCSK9+Stept-Eu and 15 ul of AF peptide. The final assay volume was 30.750 ul containing 0.5 nM PCSK9, 1.25 nM Strep-Eu, and 960 nM AF cyclic peptide. The reaction was incubated at room temperature for at least two hours prior to fluorescence measurements using an Envision Multilabel Reader. IC50 values were determined by fitting data to a sigmoidal dose-response curve using nonlinear regression. Ki was then calculated from the IC50 and the KD of AF cyclic peptide. Counts (B-counts) of the europium-labeled PCSK9 were followed to observe if compounds were adversely affecting PCSK9. A fall off of the B-counts likely indicated a false positive of inhibition. Data from this procedure was reported as “P=‘numerical value’ (nanomolar)”

Assay [2] deals with T1, PCSK9. Put plainly: PCSK9 Alexa FRET Standard assay (displacement of AlexaFluor647-tagged cyclic peptide Reagent A). Particulars: 0.5 nM PCSK9, 20 nM AF cyclic peptide Reagent A. The protocol:
A solution containing 1 nM biotinylated PCSK9+2.5 nM Lance Streptavidin Europium (Strep-Eu) was made in 50 mM HEPES pH 7.4, 0.15 M NaCl, 5 mM CaCl2, 0.01% BSA, and 0.01% Surfactant P20. A separate solution containing 40 nM of the AlexaFluor tagged cyclic peptide was made in the same buffer system. An Echo was used to transfer 0.750 ul of compound to an assay plate followed by the addition of 15 ul of PCSK9+Stept-Eu and 15 ul of AF peptide. The final assay volume was 30.750 ul containing 0.5 nM PCSK9, 1.25 nM Strep-Eu, and 20 nM AF cyclic peptide. The reaction was incubated at room temperature for at least two hours prior to fluorescence measurements using an Envision Multilabel Reader. IC50 values were determined by fitting data to a sigmoidal dose-response curve using nonlinear regression. Ki was then calculated from the IC50 and the KD of AF cyclic peptide. Counts (B-counts) of the europium-labeled PCSK9 were followed to observe if compounds were […]. A fall off of the B-counts likely indicated a false positive of inhibition. Data from this procedure was reported as “A=‘numerical value’ (nanomolar)”

For assay [3], the target named is human PCSK9 / human LDLR EGFa domain interaction (Homo sapiens, UniProt Q8NBP7). Put plainly: TR-FRET assay of inhibition of the PCSK9-LDLR protein-protein interaction. The note with it: 20 nM biotinylated human PCSK9 + 20 nM his-tagged human LDLR EGFa domain, 2 hours room temperature. The method, boiled down:
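Biotinylated human PCSK9 (20 nM) and His-tagged human LDLR EGFa domain (20 nM) incubated with Ulight-streptavidin and Eu-anti-His (5 nM each), 2 h at room temperature, in HEPES pH buffer with 5 mM CaCl2. TR-FRET read-out; IC50 from 4-parameter fit of dose-response.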
On the technique in general: Time-resolved FRET reads energy transfer from a long-lived donor to a nearby acceptor.

pIC50: −log10 of the molar value. *1 amine or outer side, *2 acyl side, *3 side chain or, on linkers, in order; H or OH if unused. Where a SMILES comes first, the peptide text is derived from it. Bridges are numbered along the chain shown (N, C = ends). [ ]: non-standard residue; d: D form. ξ: configuration not given here. X6 = C[C@@H](O)[C@H](CC(=O)[C@H](Cc1cnc[nH]1)N[*:1])C(=O)[*:2]; Ala(4-isoquinolinyl) = N[C@@H](Cc1cncc2ccccc12)C(=O)O; Trp(7-aza) = N[C@@H](Cc1c[nH]c2ncccc12)C(=O)O; mXylylene = c1cc(C[*:1])cc(C[*:2])c1; Tle = CC(C)(C)[C@H](N)C(=O)O; αMeV = CC(C)[C@](C)(N)C(=O)O; αMeS = C[C@](N)(CO)C(=O)O; Api = NC1(C(=O)O)CCNCC1; Nva = CCC[C@H](N)C(=O)O; ξαMeS = CC(N)(CO)C(=O)O; Mpa = O=C(O)CCS

T1 sequence (Q8NBP7 153-692): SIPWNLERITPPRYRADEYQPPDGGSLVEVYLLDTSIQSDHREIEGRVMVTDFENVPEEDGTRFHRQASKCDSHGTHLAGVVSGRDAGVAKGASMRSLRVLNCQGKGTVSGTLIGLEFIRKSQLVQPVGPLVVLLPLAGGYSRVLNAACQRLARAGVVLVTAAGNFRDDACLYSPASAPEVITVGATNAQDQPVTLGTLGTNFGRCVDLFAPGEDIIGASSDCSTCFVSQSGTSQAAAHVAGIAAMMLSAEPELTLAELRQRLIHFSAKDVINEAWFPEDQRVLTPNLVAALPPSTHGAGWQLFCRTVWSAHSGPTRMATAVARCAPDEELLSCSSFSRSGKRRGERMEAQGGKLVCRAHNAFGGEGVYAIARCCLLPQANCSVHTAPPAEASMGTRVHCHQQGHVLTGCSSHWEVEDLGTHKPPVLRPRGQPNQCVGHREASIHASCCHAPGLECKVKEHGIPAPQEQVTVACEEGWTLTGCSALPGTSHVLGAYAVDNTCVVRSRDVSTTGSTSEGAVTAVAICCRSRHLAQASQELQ
Chain of human PCSK9 / human LDLR EGFa domain interaction (Q8NBP7 153-692): as above
Chain of human PCSK9 / human LDLR EGFa domain interaction (Q8NBP7 31-152 partner limits assumed): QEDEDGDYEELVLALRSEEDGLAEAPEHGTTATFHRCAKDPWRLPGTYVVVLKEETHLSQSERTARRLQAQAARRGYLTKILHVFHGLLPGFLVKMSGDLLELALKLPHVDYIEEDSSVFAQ

Turning to `CC(=O)N[C@H]1CSCc2cccc(c2)CSC[C@H](C(N)=O)NC(=O)[C@H]([C@@H](C)O)NC(=O)[C@](C)(C(C)C)NC(=O)[C@H](Cc2ccc(O)cc2)NC(=O)[C@H](C)NC(=O)[C@](C)(CO)NC(=O)[C@H](Cc2c[nH]c3ncccc23)NC(=O)[C@H]([C@@H](C)O)NC(=O)[C@@H]2CCCN2C(=O)[C@H](Cc2ccc(O)cc2)NC(=O)[C@H](C(C)(C)C)NC1=O` [Compound 031] (Ac-C[Tle]YPT[Trp(7-aza)][αMeS]AY[αMeV]T[dC]-NH2; linker 1-12 via mXylylene), the pIC50 on PCSK9 [1] and at PCSK9 [2] was 7.00 to 9.00 each time.
Consider `CC(C)[C@](C)(NC(=O)[C@H](Cc1ccc(O)cc1)NC(=O)[C@H](C)NC(=O)C(C)(C)NC(=O)[C@H](Cc1c[nH]c2ncccc12)NC(=O)[C@@H](NC(=O)[C@@H]1CCCN1C(=O)[C@@H]1Cc2ccc(O)c(c2)CCCC[C@H](N)C(=O)N[C@@H](C(C)(C)C)C(=O)N1)[C@@H](C)O)C(N)=O` [Compound 032], for which the pIC50 at PCSK9 [1] and on PCSK9 [2] was 7.00 to 9.00 in each case.
For `CC(=O)N[C@H]1CSCc2cccc(c2)CSC[C@H](C(N)=O)NC(=O)[C@H]([C@@H](C)O)NC(=O)[C@](C)(C(C)C)NC(=O)[C@H](Cc2ccc(O)cc2)NC(=O)[C@H](C)NC(=O)C2(CCNCC2)NC(=O)[C@H](Cc2c[nH]c3ncccc23)NC(=O)[C@H]([C@@H](C)O)NC(=O)[C@@H]2CCCN2C(=O)[C@H](Cc2ccc(O)cc2)NC(=O)[C@H](C(C)(C)C)NC1=O` [Compound 034] (Ac-C[Tle]YPT[Trp(7-aza)][Api]AY[αMeV]T[dC]-NH2; linker 1-12 via mXylylene), the pIC50 at PCSK9 [1] and on PCSK9 [2] was 7.00 to 9.00 each time.
With `COCC1(C)NC(=O)[C@H](Cc2c[nH]c3ncccc23)NC(=O)[C@H]([C@@H](C)O)NC(=O)[C@@H]2CCCN2C(=O)[C@H](Cc2ccc(O)cc2)NC(=O)[C@H](C(C)(C)C)NC(=O)[C@@H](NC(C)=O)CSCc2cccc(c2)CSC[C@H](C(N)=O)NC(=O)[C@H]([C@@H](C)O)NC(=O)[C@](C)(C(C)C)NC(=O)[C@H](Cc2ccc(O)cc2)NC(=O)[C@H](C)NC1=O` (stereo partly drawn) [Compound 035] (Ac-C[Tle]YPT[Trp(7-aza)][ξαMeS](Me)AY[αMeV]T[dC]-NH2; linker 1-12 via mXylylene), the values for the pIC50 at PCSK9 [1] and at PCSK9 [2] were 6.30 to 7.00 and 6.00 to 7.00, respectively.
`CCC[C@@H]1NC(=O)[C@H](Cc2cncc3ccccc23)NC(=O)[C@H]([C@@H](C)O)CC(=O)[C@H](Cc2cnc[nH]2)NC(=O)[C@H](Cc2ccc(O)cc2)NC(=O)[C@H](C(C)(C)C)NC(=O)CCSCc2cccc(c2)CSC[C@@H](C(N)=O)NC(=O)[C@H]([C@@H](C)O)NC(=O)[C@H](CCC)NC(=O)[C@H](Cc2ccc(O)cc2)NC(=O)[C@H](CCC(=O)O)NC1=O` [Compound 052] ([Mpa][Tle]Y[X6][Ala(4-isoquinolinyl)][Nva]EY[Nva]TC-NH2; linker 1-11 via mXylylene): the pIC50 (in assay [3]; on PCSK9 [2]) was 6.00 to 7.00 throughout.
As to `CCC[C@@H]1NC(=O)[C@H](Cc2c[nH]c3ncccc23)NC(=O)[C@H]([C@@H](C)O)NC(=O)[C@H](Cc2cnc[nH]2)NC(=O)[C@H](Cc2ccc(O)cc2)NC(=O)[C@H](C(C)(C)C)NC(=O)CCSCc2cccc(c2)CSC[C@@H](C(N)=O)NC(=O)[C@H]([C@@H](C)O)NC(=O)[C@H](Cc2ccc(O)cc2)NC(=O)[C@H](Cc2ccc(O)cc2)NC(=O)[C@H](CCC(=O)O)NC1=O` [Compound 071] ([Mpa][Tle]YHT[Trp(7-aza)][Nva]EYYTC-NH2; linker 1-12 via mXylylene), the negative logarithm of the IC50 (pIC50) is 6.00 to 7.00 in assay [3] and 7.00 to 9.00 at PCSK9 [2].

By pIC50 is commonly meant the IC50 on a negative log10 scale, so that one unit is a factor of ten.

For the origin of these results see patent US11505575B2, “Cyclic polypeptides for PCSK9 inhibition” (Merck Sharp & Dohme LLC, priority 2018, dated 2022).
